In patent publication US6924251B1, “Substituted benzoylcyclohexandiones” (Bayer Aktiengesellschaft, priority 1998, dated 2005):
Each block holds one compound with its values, some of them ahead of it.

How the values were obtained:
[1] = system: weeds; test: Pre-emergence test, activity against weeds; format: in vivo
Description: (§1) • Solvent: 5 parts by weight of acetone • Emulsifier: 1 part by weight of alkylaryl polyglycol ether
(§2) To produce a suitable preparation of active compound, 1 part by weight of active compound is mixed with the stated amount of solvent, the stated amount of emulsifier is added and the concentrate is diluted with water to the desired concentration.
(§3) Seeds of the test plants are sown in normal soil. After approximately 24 hours, the soil is sprayed with the preparation of active compound such that the particular amount of active compound desired is applied per unit area. The concentration of the spray liquor is chosen so that the particular amount of active compound desired is applied in 1000 liters of water per hectare.
(§4) After three weeks, the degree of damage to the plants is assesssed in % damage in comparison to the development of the untreated control.

[2] = system: Cyperus; test: Pre-emergence test/greenhouse; format: in vivo; conditions: after three weeks
Description: as §1, §2, §3, §4

[3] = system: Abutilon; test: Pre-emergence test/greenhouse; format: in vivo; conditions: after three weeks
Description: as §1, §2, §3, §4

[4] = logP determination by HPLC (reversed-phase C18), EEC Directive 79/831 Annex V.A8; conditions: reversed-phase C18 HPLC column
[5] = system: Maize; test: Pre-emergence test/greenhouse; format: in vivo; conditions: 500 g ai./ha, after three weeks
Description: as §1, §2, §3, §4

[6] = system: Sinapis; test: Post emergence test/greenhouse; format: in vivo; conditions: after three weeks
Description: as §1, §2
(§5) Test plants which have a height of 5-15 cm are sprayed with the preparation of active compound in such a way that the particular amounts of active compound desired are applied per unit area. The concentration of the spray liquor is chosen so that the particular amounts of active compound desired are applied in 1000 1 of water/ha.
as §4

[7] = system: Maize; test: Post emergence test/greenhouse; format: in vivo; conditions: after three weeks
Description: as §1, §2, §5, §4

[8] = system: Amaranthus; test: Post emergence test/greenhouse; format: in vivo; conditions: after three weeks
Description: as §1, §2, §5, §4

[9] = system: weeds; test: Post-emergence test, activity against weeds; format: in vivo
Description: as §1, §2, §5, §4

chromatographic logP ([4]; pH 2): 2.7
Structure (SMILES): CCOc1nn(Cc2cc(C(F)(F)F)ccc2C(=O)C2C(=O)CCCC2=O)c(=O)n1C [compound 1, 5-ethoxy-4-methyl-2-[2-(2,6-dioxo-cyclohexyl-carbonyl)-5-trifluoromethyl-benzyl]-2,4-dihydro-3H-1,2,4-triazol-3-one]
activity against weeds [1]: strong activity | % damage Cyperus ([2]; 1000 g ai./ha): 100% | % damage Abutilon ([3]; 1000 g ai./ha): 100%

chromatographic logP [4]: 2.68
Structure (SMILES): CCOn1c(CC)nn(Cc2cc(Br)ccc2C(=O)C2C(=O)CCCC2=O)c1=O [compound 10]
activity against weeds [1]: strong activity | % damage Cyperus ([2]; 500 g ai./ha): 100% | % damage Maize [5]: 0% | % damage Abutilon ([3]; 500 g ai./ha): 90% | % damage Sinapis ([6]; 500 g ai./ha): 80% | % damage Maize ([7]; 500 g ai./ha): 20% | % damage Amaranthus ([8]; 500 g ai./ha): 95% | activity against weeds [9]: strong activity

Structure (SMILES): CCOc1nn(Cc2cc(Br)ccc2C(=O)C2C(=O)CCCC2=O)c(=O)n1C [compound 15]
% damage Sinapis ([6]; 1000 g ai./ha): 80% | % damage Maize ([7]; 1000 g ai./ha): 0% | % damage Amaranthus ([8]; 1000 g ai./ha): 90% | activity against weeds [9]: strong activity
